Experimental data reported in patent US20230142592A1, “AROMATIC COMPOUND, ORGANIC SEMICONDUCTOR LAYER AND ORGANIC THIN FILM TRANSISTOR” (TOSOH CORPORATION, priority 2020, published 2023).

How the values were obtained:
[1] = Solution for forming organic semiconductor layer: kept in solution state in toluene at 25° C.; assay type: physicochemical; settings: heated to 50° C. to dissolve, allowed to cool at room temperature (25° C.)
Description: In the air, in a 10 mL sample tube, 0.87 mg of 2,7-di(2-phenylethyl)dithienobiphenylene (Compound 1) synthesized in Example 1 and 434 mg of toluene (FUJIFILM Wako Pure Chemical Corporation, pure grade) was added and the resultant was heated to 50° C. to dissolve, and then allowed to cool at room temperature (25° C.) to thereby prepare a solution for forming an organic semiconductor layer.
The solution for forming an organic semiconductor layer was kept in a solution state after 10 hours at 25° C. (concentration of Compound 1: 0.20% by weight), confirming that this was a compound suitable for film formation by drop casting and inkjet.

[2] = Bottom gate-bottom contact p-type organic thin film transistor, transfer characteristics; settings: toluene solution, annealed at 130° C. for 10 min
Description: (§1) Furthermore, this organic thin film transistor was annealed at 130° C. for 10 min and then measured for an electric physical property.

[3] = generally; cited from earlier work
[4] = Solution for forming organic semiconductor layer: kept in solution state in toluene at 25° C.; assay type: physicochemical; settings: .44 mg in 434 mg of toluene; heated to 50° C., allowed to cool at 25° C.
[5] = Top gate-bottom contact p-type organic thin film transistor, transfer characteristics; settings: annealed at 130° C. for 10 min
Description: The solution for forming an organic semiconductor layer obtained in Example 2 was used to produce a top gate-bottom contact p-type organic thin film transistor.
as §1

| concentration of solution kept in a solution state after 10 hours at 25° C. [1] [% by weight] | Compound | further results |
| --- | --- | --- |
| 0.40 | c1ccc(CCc2cc3ccc4cc5c(ccc6ccsc65)cc4c3s2)cc1 [Compound 15, 2-(2-phenylethyl)anthra[1,2-b:5,6-b′]dithiophene] | – |
| 0.50 | Cc1ccc(CCc2cc3ccc4cc5c(ccc6ccsc65)cc4c3s2)cc1 [Compound 16, 2-(2-(4-methylphenyl)ethyl)anthra[1,2-b:5,6-b′]dithiophene] | – |
| 1.00 | CCCCc1ccc(CCc2cc3ccc4cc5c(ccc6ccsc65)cc4c3s2)cc1 [Compound 17, 2-(2-(4-n-butylphenyl)ethyl)anthra[1,2-b:5,6-b′]dithiophene] | degradation in performance due to heat treatment [2]: almost no degradation in performance |
| 0.20 | CCCCCCCc1ccc(CCc2cc3ccc4cc5c(ccc6ccsc65)cc4c3s2)cc1 [Compound 18, 2-(2-(4-n-heptylphenyl)ethyl)anthra[1,2-b:5,6-b′]dithiophene] | – |
| 1.00 | CCCOc1ccc(CCc2cc3ccc4cc5c(ccc6ccsc65)cc4c3s2)cc1 [Compound 23, 2-(2-(4-propoxyphenyl)ethyl)anthra[1,2-b:5,6-b′]dithiophene] | – |
| 0.10 | COc1ccc(CCc2cc3ccc4cc5c(ccc6ccsc65)cc4c3s2)cc1 [Compound 24, 2-(2-(4-methoxyphenyl)ethyl)anthra[1,2-b:5,6-b′]dithiophene] | – |

More lines, now with the values behind:

| Compound | concentration of solution kept in a solution state after 10 hours at 25° C. [1] [% by weight] | further results |
| --- | --- | --- |
| 2,7-di(2-(4-butylphenyl)ethyl)dithienobiphenylene [Compound 5] | 0.40 | – |
| 2,7-di(2-(4-heptylphenyl)ethyl)dithienobiphenylene [Compound 6] | 0.20 | – |
| 2,7-di(2-(4-propylphenyl)ethyl)dithienobiphenylene [Compound 4] | 0.10 | – |
| CCCCCCCCc1ccc2c(c1)sc1c3ccc(CCCCCCCC)cc3sc21 [2,7-dioctyl[1]benzothieno[3,2-b][1]benzothiophene, reference compound] | 0.20 | degradation in performance due to heat treatment [2]: transistor operation was not achieved |
| c1ccc(-c2ccc3c(c2)sc2c4ccc(-c5ccccc5)cc4sc32)cc1 [2,7-diphenyl[1]benzothieno[3,2-b][1]benzothiophene] | – | solubility in an organic solvent [3]: almost insoluble; solution state after cooling to room temperature (solubility) [4]: a solid was deposited |
| CCCCCCCCc1cc2ccc3cc4c(ccc5cc(CCCCCCCC)sc54)cc3c2s1 [2,8-dioctylanthra[1,2-b:5,6-b′]dithiophene, reference compound] | 0.20 | – |
| c1ccc(CCc2cc3ccc4c(c3s2)-c2ccc3cc(CCc5ccccc5)sc3c2-4)cc1 [Compound 1, 2,7-di(2-phenylethyl)dithienobiphenylene] | 0.20 | melting point: 195 °C; degradation in performance due to heat treatment [5]: almost no degradation in performance; degradation in performance due to heat treatment [2]: almost no degradation in performance |
| c1ccc(CCc2cc3ccc4cc5c(ccc6cc(CCc7ccccc7)sc65)cc4c3s2)cc1 [Compound 10, 2,8-di(2-phenylethyl)anthra[1,2-b:5,6-b′]dithiophene] | 0.20 | – |
| c1ccc(CCc2cc3ccc4c(c3s2)-c2ccc3ccsc3c2-4)cc1 [Compound 13, 2-(2-phenylethyl)dithienobiphenylene] | 1.00 | melting point: 161 °C |
| Cc1ccc(CCc2cc3ccc4c(c3s2)-c2ccc3ccsc3c2-4)cc1 [Compound 14, 2-(2-(4-methylphenyl)ethyl)dithienobiphenylene] | 1.00 | – |
